In patent publication US5776427A, “Methods for targeting the vasculature of solid tumors” (Board of Regents, The University of Texas System, priority 1995, dated 1998):
“Also recorded” adds a separate entry of the source. Counter-ions that a name gives are not always drawn.

Test system: Ia^d on colonic endothelium and epithelium
Assay: Ia^d expression and anti-Ia^d antibody localization in the gut of BALB/c nu/nu mice given oral tetracycline-HCl (indirect immunoperoxidase staining)
Assay type: in vivo, mouse
Method: BALB/c nu/nu mice were purchased from Simonsen (Gilroy, Calif.). SCID mice were from the UT Southwestern Medical Center breeding colony. All animals were maintained in microisolation units on sterilized food and water. Where indicated, tetracycline-HCI (Vedeo, St. Joseph, Mo.) was added to drinking water to a final concentration of 1.1 mg/ml (Harkness et al., 1983). Both strains carry the H-2^d haplotype.
For the establishment of solid tumors, a total of 2×10^7 C1300 or C1300 (Muγ) cells, or a mixture of the two, in 200 μl MEM-30% FCS were injected subcutaneously into the right anterior flank of BALB/c nu/nu or SCID mice. Tumor diameters were measured at regular intervals and the animals were euthanized after 16 days (rapidly-growing tumors) or 20 days (slowly-growing tumors). Tumors and normal tissues were excised immediately and snap-frozen over liquid nitrogen. Normal tissues were also harvested from non-tumor-bearing animals. Antibody localization studies were performed in animals bearing 1 cm subcutaneous tumors induced by injection of C1300 and C1300 (Muγ) in the ratio 7:3. One hundred micrograms of unconjugated M5/114 or CAMPATH-2 antibodies or 100 μg biotinylated 11-4.1 or WT-1 antibodies in 100 μl PBS were injected intravenously. At various times thereafter the animals were euthanized and their circulation was flushed with PBS for 5 minutes before removal and freezing of tumors and normal tissues as before. […] frozen sections were cut on a Tissuetek 2 cryostat (Baxter) and air-dried for 2 hours at room temperature. Slides were stored at -20° C. for up to 3 months before assay.
Indirect immunoperoxidase staining for rat IgG was adapted from a method described by Billington et al. (1986). Sections were allowed to return to room temperature, air dried for 30 minutes and fixed in acetone for 15 minutes. After rehydration in PBS for 5 minutes, sections were incubated in a humidified chamber for 45-60 minutes with primary antibodies, diluted optimally in PBS-0.2% BSA, (PBS-BSA). […]

CN(C)[C@@H]1C(O)=C(C(N)=O)C(=O)[C@@]2(O)C(O)=C3C(=O)c4c(O)cccc4[C@@](C)(O)[C@H]3C[C@@H]12 [tetracycline-Hcl, tetracycline-HCI]
localization of intravenously-injected anti-Ia^d antibody to colonic endothelial cells (oral administration before antibody injection): abolished localization
Ia^d expression in the colon and elsewhere in the gut (oral, 1-3 weeks): progressive diminution; also recorded: diminished Ia^d expression
numbers of intravillous CD3-positive cells (oral, 1-3 weeks): dramatic decrease
